pEC50: −log10 of the molar value. Where two headings read alike, the source gives them in different places.
What was measured:
Assay type in all cases: cell-based, human
[1] = tested on: KG1a AML cells; assay: Killing of KG1a AML cells in co-culture with HD-PBMC (flow cytometry); details: for KG1a cell death / reduction of living KG1a cells as compared to control: alone or with ICT01 0.1 μg/mL, HD-PBMC ratio 5:1, 2 days
Experimental: A) Sensitivity of KG1a cell line to Venetoclax, 5-Azacytidine or the combination. […] N=2 experiments. B) Mean±SEM relative number of Live KG1a AML cells monitored by flow cytometry after 3 days of co-culture with HD-PBMC (E:T ratio 25:1) treated with ICT01 (black) or its isotype control (hIgG1S, light grey) at 0.1 or 1 μg/mL. N=6, each dot represents one healthy donor. C) Schematic representation of treatment schedule for killing of KG1a AML cells by HD-PBMC. D) Relative number of Live KG1a AML cells (Mean±SEM) (left) and Frequency of Live KG1a AML cell relative to no Venetoclax or 5-Azacytidine treatment (Mean±SEM) (right) after 3 days of co-culture with HD-PBMC in presence of ICT01 (black) or its isotype control (hIgG1S, light grey) and treatment with Venetoclax, 5-Azacytidine or the combination. N=6, each dot represents one healthy donor, * p<0.05, Wilcoxon test.
KG1a cells were co-cultured with HD-PBMC at ratio 5:1 in presence of m20.1 or isotype control (0.1 μg/mL). After 6 hrs, indicated concentrations of Venetoclax, 5-Azacytidine or the combination were added to the culture. Relative number of live KG1a was monitored after 48 hrs by flow cytometry. […] N=6, each dot represents one healthy donor, * p<0.05, ** p<0.01, *** p<0.001, **** p<0.0001, 2 way ANOVA.
(§1) KG1a or MOLM14 AML cell lines were co-cultured with HD-PBMC at ratio 5:1 in presence of ICT01 or isotype control (0.1 μg/mL). After 6 hrs, indicated concentrations of ABT-737, Navitoclax or MIK665 were added to the culture. A) Relative numbers of live KG1a cells (Mean±SEM) after 2 days of co-culture with HD-PBMC in presence of ICT01 (black) or its isotype control hIgG1S (light grey) and treatment with indicated concentration of ABT-737. B) Relative numbers of live KG1a cells (Mean±SEM) after 2 days of co-culture with HD-PBMC in presence of ICT01 (black) or its isotype control hIgG1S (light grey) and treatment with indicated concentration of Navitoclax. C) Relative numbers of live MOLM14 cells (Mean±SEM) after 2 days of co-culture with HD-PBMC in presence of ICT01 (black) or its isotype control hIgG1S (light grey) and treatment with indicated concentration of MIK665. N=6 HD, each dot represents one healthy donor, * p<0.05, 2 way ANOVA.
The effect of Venetoclax and 5-Azacytidine on anti-BTN3A antibodies-induced killing of AML cell lines by Vγ9Vδ2 T cells was assessed by measuring the relative number of surviving target cells in a HD-PBMC-AML cell co-culture using flow cytometry.
Then, KG1a AML cells were stained with CellTrace CFSE Proliferation dye (ThermoFisher) to allow for specific detection by flow cytometry, counted, put into a co-culture with thawed HD-PBMC and treated with the anti-BTN3A mAbs ICT01 or m20.1 or their respective isotype controls (hIgG1S or mIgG1) in PBMC medium (RPMI 1640 Medium supplemented with 10% Fetal Bovine Serum (FBS) and 1 mM Sodium Pyruvate). On day one of culture, increasing concentrations of Venetoclax (0-0.4 μM), 5-Azacytidine (0-0.4 μM) or the combination were added. Cells were harvested on day 3 of co-culture, centrifuged at 1800 rpm for 5 minutes and then incubated 10 minutes at room temperature (RT) with 25 μl of FcR blocking reagent (Miltenyi Biotec) before adding 25 μL of the following antibody mix prepared in PBS+2% FBS+2 mM EDTA (FACS buffer): anti-CD56-BV421, CD19-BV421, CD14-BV785, Tyb-PE and CD3-AF700 antibodies for the identification of immune subsets, and a viability marker (LIVE/DEAD™ Fixable Dead Cell Stain) was added to distinguish live and dead cells. Cells were incubated 20 minutes at room temperature, washed once in FACS buffer and once in AnnexinV staining buffer. An AnnexinV-APC probe mixed with CountBright Absolute Counting Beads (Invitrogen) was added to determine apoptosis and relative cell numbers, followed by 15 minutes incubation at RT before flow cytometry analysis. […]

[2] = tested on: Vγ9Vδ2 T cells; assay: Survival of Vγ9Vδ2 T cells in HD-PBMC (Caspase3/7 and dead cell marker, flow cytometry); details: HD-PBMC, 48 h; for CC50: in presence of isotype control (hIgG1S 1 μg/mL)
Experimental: The effect of ICT01 on the survival of Vγ9Vδ2 T cells upon treatment with Bcl-2 family member inhibitors was assessed in Peripheral Blood Mononuclear Cells from Healthy Donors (HD-PBMC) using the apoptotic marker Caspase3/7 and a dead cell marker in flow cytometry analysis.
Peripheral Blood Mononuclear Cells (PBMC) were isolated by Ficoll density gradient centrifugation of peripheral blood (EDTA-buffy coats) from healthy donors (HD, n=4-6), cultured in PBMC medium (RPMI 1640 Medium supplemented with 10% Fetal Bovine Serum (FBS), 1% Penicillin/Streptomycin and 1 mM Sodium Pyruvate) and treated with ICT01 or its isotype control (hIgG1S) used at 1 μg/mL in the presence or absence of increasing concentrations of Venetoclax (0-0.1 μM), 5-Azacytidine (0-0.4 μM) or the combination, or ABT-737 (0-1.875 μM), Navitoclax (0-1.875 μM) or MIK665 (0-1.875 μM). Cells were harvested on day 2, centrifuged at 1800 rpm for 5 minutes and then incubated 10 minutes at room temperature (RT) with 25 μl of FcR blocking reagent (Miltenyi Biotec) before adding 25 μL of the following antibody mix prepared in PBS+2% FBS+2 mM EDTA (FACS buffer): anti-CD4-BUV395, CD56-BV421, Vd2-PE, CD3-PE-CF594 and CD8-A700 antibodies for the identification of immune subsets, anti-CD25-BV650 and CD69-APC antibodies were added to monitor activation status of Vγ9Vδ2 T cells, and a viability marker (LIVE/DEAD™ Fixable Dead Cell Stain) was added to distinguish live from dead cells. Cells were incubated 20 minutes at room temperature (RT) and washed 2 times with FACS buffer. A Caspase3/7 Green detection reagent (ThermoFisher) was added to determine apoptosis and cells were incubated for 30 minutes at RT before flow cytometry analysis.
In a similar experiment, freshly isolated PBMC were stimulated with ICT01 or its isotype control hIgG1S for 1 day prior to a 2 day-treatment with Venetoclax (FIG. 3a). The number of live Vγ9Vδ2 T cells was assessed by flow cytometry at the end of the incubation time.

[3] = tested on: MOLM14 cells; assay: Killing of MOLM14 AML cells in co-culture with HD-PBMC (flow cytometry); details: alone or with ICT01 0.1 μg/mL, HD-PBMC ratio 5:1, 2 days
Experimental: as §1
The effect of the three Bcl-2 family member inhibitors ABT-737, Navitoclax and MIK665, on ICT01-induced killing of AML cell lines by Vγ9Vδ2 T cells was assessed by measuring the relative number of surviving target cells in a HD-PBMC-AML cells co-culture using flow cytometry.
For assays using ABT-737 or Navitoclax, KG1a cells were used. […] Therefore, MOLM14 cells, which express MCL-1, were used in killing assays assessing the activity of ICT01 combined with MIK665.

[4] = Bcl-2 family inhibitor at 0.25 μM
[5] = Bcl-2 family inhibitor at 0.5 μM
[6] = in presence of ICT01 (1 μg/mL), read-out: EC50 of Vγ9Vδ2 T cell death
[7] = Homo sapiens, T-cell, read-out: EC50 of Vγ9Vδ2 T cell death
[8] = Homo sapiens, T-cell, inhibitor alone (FIG. 2a), read-out: EC50 of apoptosis and death of Vγ9Vδ2 T cells

Compound: CN(C)CC[C@H](CSc1ccccc1)Nc1ccc(S(=O)(=O)NC(=O)c2ccc(N3CCN(Cc4ccccc4-c4ccc(Cl)cc4)CC3)cc2)cc1[N+](=O)[O-] [ABT-737]
- KG1a cell death / reduction of living KG1a cells as compared to control [1, 4]: ~ 34%
- KG1a cell death / reduction of living KG1a cells as compared to control [1, 5]: ~ 54%
- pEC50 [2, 6]: 6.34
- CC50 [2, 7]: 0.23 µM
- pEC50 [2, 8]: 6.62

Compound: COc1ccccc1-c1nccc(COc2ccccc2C[C@@H](Oc2ncnc3sc(-c4ccc(F)cc4)c(-c4ccc(OCCN5CCN(C)CC5)c(Cl)c4C)c23)C(=O)O)n1 [MIK665, (R)-2-((5-(3-chloro-2-methyl-4-(2-(4-methylpiperazin-1-yl)ethoxy)phenyl)-6-(4-fluorophenyl)thieno[2,3-d]pyrimidin-4-yl)oxy)-3-(2-((2-(2-methoxyphenyl)pyrimidin-4-yl)methoxy)phenyl)propanoic acid]
- cell death / reduction of living MOLM14 cells as compared to control ([3]; MIK665 at 0.025 μM): ~ 52%
- cell death / reduction of living MOLM14 cells as compared to control ([3]; MIK665 at 0.05 μM): ~ 72%
- sensitivity of KG1a to MIK665 treatment ([1]; cell line does not express MCL-1): completely resistant
- pEC50 [2, 6]: 6.11
- CC50 [2, 7]: 0.24 µM
- pEC50 [2, 8]: 6.62

Compound: CC1(C)CCC(c2ccc(Cl)cc2)=C(CN2CCN(c3ccc(C(=O)NS(=O)(=O)c4ccc(N[C@H](CCN5CCOCC5)CSc5ccccc5)c(S(=O)(=O)C(F)(F)F)c4)cc3)CC2)C1 [Navitoclax, 4-[4-[[2-(4-chlorophenyl)-5,5-dimethylcyclohexen-1-yl]methyl]piperazin-1-yl]-N-[4-[[(2R)-4-morpholin-4-yl-1-phenylsulfanylbutan-2-yl]amino]-3-(trifluoromethylsulfonyl)phenyl]sulfonylbenzamide]
- KG1a cell death / reduction of living KG1a cells as compared to control [1, 4]: ~ 51%
- KG1a cell death / reduction of living KG1a cells as compared to control [1, 5]: ~ 71%
- pEC50 [2, 6]: 6.70
- CC50 [2, 7]: 0.16 µM
- pEC50 [2, 8]: 6.80
